Test system: 188146-221-R-J1-PDC complex spheroid viability
Assay: Anticancer human tumor 188146-221-R-J1-PDC patient-derived colon adenocarcinoma cell line growth inhibition [POLQ]
Details: for IC50: curve of first compound; for viability, T/C: stronger effect = lower value
How it was run: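 Growth inhibition in 3D: complex spheroids (tumor PDC, HUVEC, MSC) treated with POLQ inhibitor combinations; where Cmax unknown, highest tested concentration 10 microM, except SN-38 at 1 microM.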

[1] = second compound 0.0316 µM, first compound 0.0316 µM
[2] = second compound 0.0316 µM, first compound 0.1 µM
[3] = second compound 0.1 µM, first compound 0.0316 µM
[4] = second compound 0.1 µM, first compound 0.1 µM
[5] = second compound 0.316 µM, first compound 0.0316 µM
[6] = second compound 0.316 µM, first compound 0.1 µM
[7] = second compound 1 µM, first compound 0.0316 µM
[8] = second compound 1 µM, first compound 0.1 µM
[9] = second compound 3.16 µM, first compound 0.0316 µM
[10] = second compound 3.16 µM, first compound 0.1 µM
[11] = second compound 10 µM, first compound 0.0316 µM
[12] = second compound 10 µM, first compound 0.1 µM
[13] = second compound 0.0316 µM, first compound 0.316 µM
[14] = second compound 0.0316 µM, first compound 1 µM
[15] = second compound 0.0316 µM, first compound 3.16 µM
[16] = second compound 0.0316 µM, first compound 10 µM
[17] = second compound 0.1 µM, first compound 0.316 µM
[18] = second compound 0.1 µM, first compound 1 µM
[19] = second compound 0.1 µM, first compound 3.16 µM
[20] = second compound 0.1 µM, first compound 10 µM
[21] = second compound 0.316 µM, first compound 0.316 µM
[22] = second compound 0.316 µM, first compound 1 µM
[23] = second compound 0.316 µM, first compound 3.16 µM
[24] = second compound 0.316 µM, first compound 10 µM
[25] = second compound 1 µM, first compound 0.316 µM
[26] = second compound 1 µM, first compound 1 µM
[27] = second compound 1 µM, first compound 3.16 µM
[28] = second compound 1 µM, first compound 10 µM
[29] = second compound 3.16 µM, first compound 0.316 µM
[30] = second compound 3.16 µM, first compound 1 µM
[31] = second compound 3.16 µM, first compound 3.16 µM
[32] = second compound 3.16 µM, first compound 10 µM
[33] = second compound 10 µM, first compound 0.316 µM
[34] = second compound 10 µM, first compound 1 µM
[35] = second compound 10 µM, first compound 3.16 µM
[36] = second compound 10 µM, first compound 10 µM
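Also: spheroids exposed to compounds for seven days.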
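For viability, T/C in this document: 100% = DMSO vehicle control viability.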

In the case of Cn1ncnc1[C@H]1c2n[nH]c(=O)c3cc(F)cc(c23)N[C@@H]1c1ccc(F)cc1 + COC1C(OC(N)=O)C(O)C(Oc2ccc3c(O)c(NC(=O)c4ccc(O)c(CC=C(C)C)c4)c(=O)oc3c2C)OC1(C)C, the IC50 (second compound 0.0316 µM) is reported as greater than 0.1 µM, the IC50 (second compound 0.1 µM) is reported as greater than 0.1 µM and the IC50 (second compound 0.316 µM) is reported as greater than 0.1 µM. It also gave an IC50 (second compound 1 µM) greater than 0.1 µM, an IC50 (second compound 3.16 µM) greater than 0.1 µM and an IC50 (second compound 10 µM) greater than 0.1 µM. The viability, T/C (second compound 0.0316 µM, first compound 0.000316 µM) was 109%, the viability, T/C (second compound 0.0316 µM, first compound 0.001 µM) was 93.7% and the viability, T/C (second compound 0.0316 µM, first compound 0.00316 µM) was 104%. It also gave a viability, T/C (second compound 0.0316 µM, first compound 0.01 µM) of 113%, a viability, T/C [1] of 97.9% and a viability, T/C [2] of 88.4%. For the same compound, the viability, T/C (second compound 0.1 µM, first compound 0.000316 µM) was 108%, the viability, T/C (second compound 0.1 µM, first compound 0.001 µM) was 108% and the viability, T/C (second compound 0.1 µM, first compound 0.00316 µM) was 108%. The viability, T/C (second compound 0.1 µM, first compound 0.01 µM) was 101%, the viability, T/C [3] was 99.5% and the viability, T/C [4] was 86.8%. The viability, T/C (second compound 0.316 µM, first compound 0.000316 µM) was 114%, the viability, T/C (second compound 0.316 µM, first compound 0.001 µM) was 102% and the viability, T/C (second compound 0.316 µM, first compound 0.00316 µM) was 98.2%. The viability, T/C (second compound 0.316 µM, first compound 0.01 µM) was 93.8%, the viability, T/C [5] was 98.8% and the viability, T/C [6] was 88.8%. For the same compound, the viability, T/C (second compound 1 µM, first compound 0.000316 µM) was 107%, the viability, T/C (second compound 1 µM, first compound 0.001 µM) was 113% and the viability, T/C (second compound 1 µM, first compound 0.00316 µM) was 108%. It also gave a viability, T/C (second compound 1 µM, first compound 0.01 µM) of 107%, a viability, T/C [7] of 98.2% and a viability, T/C [8] of 101%. The viability, T/C (second compound 3.16 µM, first compound 0.000316 µM) was 108%, the viability, T/C (second compound 3.16 µM, first compound 0.001 µM) was 103% and the viability, T/C (second compound 3.16 µM, first compound 0.00316 µM) was 106%. It also gave a viability, T/C (second compound 3.16 µM, first compound 0.01 µM) of 97.5%, a viability, T/C [9] of 110% and a viability, T/C [10] of 102%. The viability, T/C (second compound 10 µM, first compound 0.000316 µM) was 114%, the viability, T/C (second compound 10 µM, first compound 0.001 µM) was 104% and the viability, T/C (second compound 10 µM, first compound 0.00316 µM) was 111%. The viability, T/C (second compound 10 µM, first compound 0.01 µM) was 104%, the viability, T/C [11] was 103% and the viability, T/C [12] was 105%.
Compound CCCS(=O)(=O)Nc1ccc(F)c(C(=O)c2c[nH]c3ncc(-c4ccc(Cl)cc4)cc23)c1F + COC1C(OC(N)=O)C(O)C(Oc2ccc3c(O)c(NC(=O)c4ccc(O)c(CC=C(C)C)c4)c(=O)oc3c2C)OC1(C)C has an IC50 (second compound 0.0316 µM) of 5.54 µM, an IC50 (second compound 0.1 µM) of 5.87 µM and an IC50 (second compound 0.316 µM) of 4.88 µM. The IC50 (second compound 1 µM) was 5.62 µM, the IC50 (second compound 3.16 µM) was 7.78 µM and the IC50 (second compound 10 µM) was 5.25 µM. The viability, T/C [1] was 106%, the viability, T/C [2] was 92% and the viability, T/C [13] was 77.3%. The viability, T/C [14] was 76.3%, the viability, T/C [15] was 79.8% and the viability, T/C [16] was 27.5%. For the same compound, the viability, T/C [3] was 110%, the viability, T/C [4] was 102% and the viability, T/C [17] was 89%. The viability, T/C [18] was 89.8%, the viability, T/C [19] was 76.9% and the viability, T/C [20] was 29.7%. It also gave a viability, T/C [5] of 100%, a viability, T/C [6] of 89.5% and a viability, T/C [21] of 94.5%. It also gave a viability, T/C [22] of 79.7%, a viability, T/C [23] of 65.3% and a viability, T/C [24] of 26.8%. It also gave a viability, T/C [7] of 100%, a viability, T/C [8] of 96.2% and a viability, T/C [25] of 85.4%. The viability, T/C [26] was 84.7%, the viability, T/C [27] was 75.1% and the viability, T/C [28] was 27.4%. The viability, T/C [9] was 102%, the viability, T/C [10] was 103% and the viability, T/C [29] was 92.2%. The viability, T/C [30] was 72.3%, the viability, T/C [31] was 80.9% and the viability, T/C [32] was 41.2%. It also gave a viability, T/C [11] of 102%, a viability, T/C [12] of 90.2% and a viability, T/C [33] of 96.3%. The viability, T/C [34] was 78.2%, the viability, T/C [35] was 72.7% and the viability, T/C [36] was 26%.
CC(C)n1c(=O)n(C)c2cnc3cc(F)c(-c4ccc(OCCCN5CCCCC5)nc4)cc3c21 + COC1C(OC(N)=O)C(O)C(Oc2ccc3c(O)c(NC(=O)c4ccc(O)c(CC=C(C)C)c4)c(=O)oc3c2C)OC1(C)C was tested, and the IC50 (second compound 0.0316 µM) was greater than 10 µM, the IC50 (second compound 0.1 µM) was greater than 10 µM and the IC50 (second compound 0.316 µM) was greater than 10 µM. It also gave an IC50 (second compound 1 µM) greater than 10 µM, an IC50 (second compound 3.16 µM) greater than 10 µM and an IC50 (second compound 10 µM) greater than 10 µM. For the same compound, the viability, T/C [1] was 103%, the viability, T/C [2] was 105% and the viability, T/C [13] was 101%. For the same compound, the viability, T/C [14] was 97.6%, the viability, T/C [15] was 94.6% and the viability, T/C [16] was 82.9%. For the same compound, the viability, T/C [3] was 103%, the viability, T/C [4] was 95.8% and the viability, T/C [17] was 106%. It also gave a viability, T/C [18] of 98%, a viability, T/C [19] of 93.3% and a viability, T/C [20] of 82%. It also gave a viability, T/C [5] of 99.6%, a viability, T/C [6] of 104% and a viability, T/C [21] of 94.7%. For the same compound, the viability, T/C [22] was 89.8%, the viability, T/C [23] was 81.3% and the viability, T/C [24] was 96.2%. For the same compound, the viability, T/C [7] was 96.8%, the viability, T/C [8] was 101% and the viability, T/C [25] was 103%. The viability, T/C [26] was 102%, the viability, T/C [27] was 102% and the viability, T/C [28] was 86.8%. It also gave a viability, T/C [9] of 98.8%, a viability, T/C [10] of 101% and a viability, T/C [29] of 93.4%. It also gave a viability, T/C [30] of 96.1%, a viability, T/C [31] of 108% and a viability, T/C [32] of 88.7%. The viability, T/C [11] was 107%, the viability, T/C [12] was 101% and the viability, T/C [33] was 109%. It also gave a viability, T/C [34] of 93.7%, a viability, T/C [35] of 113% and a viability, T/C [36] of 90.9%.
